Source: patent US10130633B2, “Compounds” (BAYER PHARMA AKTIENGESELLSCHAFT, priority 2013, dated 2018)

Tests used:
[1] = system: constitutive active colorectal cancer cell (CRC) Wnt pathway; assay: HCT116 TOPFlash cellular reporter assay (Super TopFlash luciferase), constitutive active Wnt pathway; assay type: cell-based; conditions: HCT116 TOP reporter cells, 36 hours incubation, luciferase expression
Procedure: In order to discover and characterize small molecules which inhibit the constitutive active colorectal cancer cell (CRC) Wnt pathway, a cellular reporter assay was employed. […] Stable transfectants were generated by cotransfection with pcDNA3 and selection of stable transfected cells with 1 mg/ml G418.

[2] = system: HCT116 FOP control reporter cell line; assay: HCT116 FOPFlash control reporter assay (FOP control vector, non-functional TCF elements); assay type: cell-based; conditions: HCT116 FOP control reporter cells, 36 hours incubation, luciferase expression
Source text: In a parallel approach, HCT116 cells were cotransfected with the FOP control vector and pcDNA3. The FOP vector is identical to the TOP construct, but it contains instead of functional TCF elements a randomized, non-functional sequence. For this transfection a stable transfected cell line was generated as well.

SMILES | IC50 ([1]; Homo sapiens, HCT-116, 36 h) [nM] | IC50 ([2]; Homo sapiens, HCT-116, 36 h) [nM] | IC50 [1] [nM] | IC50 [2] [nM]
O=C(CN1CCOCC1)Nc1cc(C(=O)Nc2ccc(-c3ccccc3)nc2)ccc1C(F)(F)F [Example 13, 3-[(morpholin-4-ylacetyl)amino]-N-(6-phenylpyridin-3-yl)-4-(trifluoromethyl)benzamide] | 362 | ≥ 50000 |  | 
CC(C(=O)Nc1cc(C(=O)Nc2nnc(-c3ccccc3)s2)ccc1CS(C)(=O)=O)N1CCOCC1 (centres unmarked) [Example 87, 4-[(methylsulfonyl)methyl]-3-{[2-(morpholin-4-yl)propanoyl]amino}-N-(5-phenyl-1,3,4-thiadiazol-2-yl)benzamide] | 858 | 48000 |  | 
COCc1ccc(C(=O)Nc2nnc(-c3ccccc3)s2)cc1NC(=O)CN1CCN(C2CC2)CC1 [Example 84, 3-{[(4-cyclopropylpiperazin-1-yl)acetyl]amino}-4-(methoxymethyl)-N-(5-phenyl-1,3,4-thiadiazol-2-yl)benzamide] | 453 | ≥ 50000 |  | 
C[C@@H](C(=O)Nc1cc(C(=O)Nc2ccc(-c3ccc(CO)cc3)nc2)ccc1OC(F)(F)F)N1CCOCC1 (single isomer, unassigned) [Example 119, N-{6-[4-(hydroxymethyl)phenyl]pyridin-3-yl}-3-{[(2S)-2-(morpholin-4-yl)propanoyl]amino}-4-(trifluoromethoxy)benzamide or N-{6-[4-(hydroxymethyl)phenyl]pyridin-3-yl}-3-{[(2R)-2-(morpholin-4-yl)propanoyl]amino}-4-(trifluoromethoxy)benzamide] |  |  | 650 | ≥ 50000
COc1ccc(C(=O)Nc2nnc(-c3ccccc3)s2)cc1NC(=O)CN1CCN(C)CC1 [Example 91, 4-methoxy-3-{[(4-methylpiperazin-1-yl)acetyl]amino}-N-(5-phenyl-1,3,4-thiadiazol-2-yl)benzamide] | 650 | 44000 |  | 
O=C(Nc1nnc(-c2ccccc2F)s1)c1ccc(OC(F)(F)F)c(NC(=O)C2(N3CCOCC3)CC2)c1 [Example 89, N-[5-(2-fluorophenyl)-1,3,4-thiadiazol-2-yl]-3-({[1-(morpholin-4-yl)cyclopropyl]carbonyl}amino)-4-(trifluoromethoxy)benzamide] | 216 | 44000 |  | 
O=C(CN1CCN(CC(F)F)CC1)Nc1cc(C(=O)Nc2ccc(-c3ccccc3F)nc2)ccc1OC(F)(F)F [Example 100, 3-({[4-(2,2-difluoroethyl)piperazin-1-yl]acetyl}amino)-N-[6-(2-fluorophenyl)pyridin-3-yl]-4-(trifluoromethoxy)benzamide] | 858 | ≥ 50000 |  | 
COc1ccc(C(=O)Nc2ccc(-c3ccccc3)nc2)cc1NC(=O)CN1CCOCC1 [Example 4, 4-methoxy-3-[(morpholin-4-ylacetyl)amino]-N-(6-phenylpyridin-3-yl)benzamide] | 300 | ≥ 50000 |  | 
O=C(CN1CCOCC1)Nc1cc(C(=O)Nc2ccc(-c3cc(F)cc(F)c3)nc2)ccc1OC(F)(F)F [Example 72, N-[6-(3,5-difluorophenyl)pyridin-3-yl]-3-[(morpholin-4-ylacetyl)amino]-4-(trifluoromethoxy)benzamide] | 106 | 8000 |  | 

Now from value to molecule:

IC50 ([1]; Homo sapiens, HCT-116, 36 h) [nM] | IC50 ([2]; Homo sapiens, HCT-116, 36 h) [nM] | IC50 [1] [nM] | IC50 [2] [nM] | SMILES
2870 | 29000 |  |  | CN(C(=O)CN1CCOCC1)c1cc(C(=O)Nc2ccc(-c3ccccc3)nc2)ccc1OC(F)(F)F [Example 228, 3-[methyl(morpholin-4-ylacetyl)amino]-N-(6-phenylpyridin-3-yl)-4-(trifluoromethoxy)benzamide]
1080 | 12000 |  |  | CN1CCCN(CC(=O)Nc2cc(C(=O)Nc3nnc(-c4ccccc4)s3)ccc2OC(F)(F)F)CC1 [Example 168, 3-{[(4-methyl-1,4-diazepan-1-yl)acetyl]amino}-N-(5-phenyl-1,3,4-thiadiazol-2-yl)-4-(trifluoromethoxy)benzamide]
204 | ≥ 50000 |  |  | CC(C(=O)Nc1cc(C(=O)Nc2ncc(-c3ccccc3)s2)ccc1C(C)(C)C)N1CCOCC1 (centres unmarked) [Example 143, 4-tert-butyl-3-{[2-(morpholin-4-yl)propanoyl]amino}-N-(5-phenyl-1,3-thiazol-2-yl)benzamide]
2030 | ≥ 50000 |  |  | CN1CCN(CC(=O)Nc2cc(C(=O)Nc3nnc(-c4ccccc4)s3)ccc2CS(C)(=O)=O)CC1 [Example 104, 3-{[(4-methylpiperazin-1-yl)acetyl]amino}-4-[(methylsulfonyl)methyl]-N-(5-phenyl-1,3,4-thiadiazol-2-yl)benzamide]
 |  | 180 | ≥ 50000 | CC(C(=O)Nc1cc(NC(=O)c2ccc(-c3ccccc3F)nc2)ccc1OC(F)(F)F)N1CC2CCC(C1)O2 (centres unmarked) [Example 212, 6-(2-fluorophenyl)-N-[3-{[2-(8-oxa-3-azabicyclo[3.2.1]oct-3-yl)propanoyl]amino}-4-(trifluoromethoxy)phenyl] nicotinamide]
255 | ≥ 50000 |  |  | Cc1ccccc1-c1nnc(NC(=O)c2ccc(OC3CC3)c(NC(=O)CN3CCN(C)CC3)c2)s1 [Example 264, 4-(cyclopropyloxy)-N-[5-(2-methylphenyl)-1,3,4-thiadiazol-2-yl]-3-{[(4-methylpiperazin-1-yl)acetyl]amino}benzamide]
2100 | ≥ 50000 |  |  | CC(C(=O)Nc1cc(NC(=O)c2cnc(-c3ccccc3)s2)ccc1OC(F)(F)F)N1CCOCC1 (centres unmarked) [Example 255, N-[3-{[2-(morpholin-4-yl)propanoyl]amino}-4-(trifluoromethoxy)phenyl]-2-phenyl-1,3-thiazole-5-carboxamide]
 |  | 263 | 15200 | CC(C(=O)Nc1cc(NC(=O)c2ccc(-c3cccc(F)c3)nc2)ccc1OC(F)(F)F)N1C[C@@H]2C[C@H]1CO2 (relative stereo) [Example 222, 6-(3-fluorophenyl)-N-[3-({(2S*)-2-[(1S,4S)-2-oxa-5-azabicyclo[2.2.1]hept-5-yl]propanoyl}amino)-4-(trifluoromethoxy)phenyl] nicotinamide]
2890 | ≥ 50000 |  |  | O=C(CN1CCOCC1)Nc1cc(C(=O)Nc2nnc(-c3ccccc3)s2)ccc1OC(F)F [Example 239, 4-(difluoromethoxy)-3-[(morpholin-4-ylacetyl)amino]-N-(5-phenyl-1,3,4-thiadiazol-2-yl)benzamide]
1380 | 3100 |  |  | O=C(Nc1ccc([N+](=O)[O-])cc1Cl)c1cc(Cl)ccc1O [Ref., niclosamide, reference compound]
375 | ≥ 50000 |  |  | CCc1ccccc1-c1nnc(NC(=O)c2ccc(OC(F)(F)F)c(NC(=O)CN3CCOCC3)c2)s1 [Example 269, N-[5-(2-ethylphenyl)-1,3,4-thiadiazol-2-yl]-3-[(morpholin-4-ylacetyl)amino]-4-(trifluoromethoxy)benzamide]
46 | ≥ 50000 |  |  | CC(C(=O)Nc1cc(C(=O)Nc2ccc(-c3ccc(N(C)C)cc3)nc2)ccc1OC(F)(F)F)N1CCOCC1 (centres unmarked) [Example 114, N-{6-[4-(dimethylamino)phenyl]pyridin-3-yl}-3-{[2-(morpholin-4-yl)propanoyl]amino}-4-(trifluoromethoxy)benzamide]
 |  | 42.4 | 3800 | CC(C(=O)Nc1cc(C(=O)Nc2ccc(-c3cc(F)cc(F)c3)nc2)ccc1OC(F)(F)F)N1CC2CCC(C1)O2 (centres unmarked) [Example 178, N-[6-(3,5-difluorophenyl)pyridin-3-yl]-3-{[2-(8-oxa-3-azabicyclo[3.2.1]oct-3-yl)propanoyl]amino}-4-(trifluoromethoxy)benzamide]
